Measured values reported in patent publication US20260022142A1, “MACROCYCLIC IMMUNOMODULATORS” (Bristol-Myers Squibb Company, priority 2022, published 2026).
Bridge positions count the residues as written; N and C are the ends. Square brackets hold non-standard residues; d marks the D form. Peptide text beside a SMILES is read from it. * marks the point of attachment. ξ: configuration not given here. Bip = N[C@@H](Cc1ccc(-c2ccccc2)cc1)C(=O)O; Phe(3-Me) = Cc1cccc(C[C@H](N)C(=O)O)c1; Cha = N[C@@H](CC1CCCCC1)C(=O)O; Cit = NC(=O)NCCC[C@H](N)C(=O)O; Carboxymethyl = O=C(O)C*; Orn = NCCC[C@H](N)C(=O)O; Aun = NCCCCCCCCCCC(=O)O; Dab = NCC[C@H](N)C(=O)O; Dap = NC[C@H](N)C(=O)O; AEEA = NCCOCCOCC(=O)O; ξC = NC(CS)C(=O)O

Target: T1, PD-1/PD-L1 interaction (PE-labeled human PD-L1-Ig binding to Jurkat cell line over-expressing human PD-1) (Homo sapiens, UniProt Q15116)
T1 construct: expressed in transfected cells; host or cells: Jurkat
T1 sequence (Q15116 25-288): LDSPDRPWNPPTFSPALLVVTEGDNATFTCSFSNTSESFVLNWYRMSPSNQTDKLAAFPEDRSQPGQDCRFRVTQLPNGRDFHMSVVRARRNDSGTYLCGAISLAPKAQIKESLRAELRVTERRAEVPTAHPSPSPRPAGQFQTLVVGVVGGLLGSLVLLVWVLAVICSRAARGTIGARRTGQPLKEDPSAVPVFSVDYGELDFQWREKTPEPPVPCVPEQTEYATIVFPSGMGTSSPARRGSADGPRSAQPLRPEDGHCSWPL
Assay: Jurkat-PD-1 Cell Binding High-Content Screening Assay (CBA)
Assay type: cell-based
Conditions: Jurkat cell line over-expressing human PD-1; PE-labeled PD-L1-Ig 20 nM final; read-out: Jurkat hPD1-PDL1 IC50
How it was run: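 Binding of fluorescent PD-L1-Ig (phycoerythrin on Ig tag, 20 nM final, 1 h) measured by high-content imaging of fixed, Hoechst-counterstained Jurkat-hPD-1 cells. Compound added 2 h at 37° C beforehand, in DMEM with 10% fetal calf serum.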

Question: Which IC50 does the source give for `CC(C)C[C@H]1NC(=O)[C@H](CCCN)NC(=O)[C@H](CCCNC(N)=O)NC(=O)[C@H](Cc2ccc(-c3ccccc3)cc2)NC(=O)[C@H](C(C)C)NC(=O)[C@H](Cc2c[nH]c3ccccc23)NC(=O)[C@H](CC(=O)O)NC(=O)[C@H](Cc2ccc(OCC(=O)O)cc2)NC(=O)[C@H](Cc2ccc(OCC(=O)O)cc2)NC(=O)CSC[C@@H](C(=O)NCCOCCOCC(=O)N[C@@H](CCN)C(=O)NCCCCCCCCCCC(=O)O)NC(=O)[C@H](CCCNC(=N)N)NC(=O)[C@H](C(C)C)NC(=O)[C@H](CC2CCCCC2)NC(=O)[C@H](CCN)NC1=O` [Compound 2655] ({CH2CO}-Y(Carboxymethyl)Y(Carboxymethyl)DWV[Bip][Cit][Orn][dL][Dab][Cha]VRC[AEEA][Dab][Aun]-OH; thioether N-14) here?
Answer: The IC50 was 0.0094 µM.

Question: Which IC50 does the source give for `CC[C@H](C)[C@@H]1NC(=O)[C@H](Cc2ccc(-c3ccccc3)cc2)NC(=O)[C@H](C(C)C)NC(=O)[C@H](Cc2c[nH]c3ccccc23)NC(=O)[C@H](CC(=O)O)NC(=O)[C@H](Cc2ccc(OCC(=O)O)cc2)NC(=O)[C@H](Cc2ccc(OCC(=O)O)cc2)NC(=O)CSC[C@@H](C(=O)NCCOCCOCC(=O)N[C@@H](CCN)C(=O)NCCCCCCCCCCC(=O)O)NC(=O)[C@H](CCCNC(=N)N)NC(=O)[C@H](C(C)C)NC(=O)[C@H](CC2CCCCC2)NC(=O)[C@H](CCN)NC(=O)[C@@H](CC(C)C)NC(=O)[C@H](CCCN)NC1=O` [Compound 2656] ({CH2CO}-Y(Carboxymethyl)Y(Carboxymethyl)DWV[Bip]I[Orn][dL][Dab][Cha]VRC[AEEA][Dab][Aun]-OH; thioether N-14) here?
Answer: Its IC50 is 0.0082 µM.

Question: For `CC(C)C[C@H]1NC(=O)[C@H](CCCN)NC(=O)[C@H](CCC(=O)O)NC(=O)[C@H](Cc2ccc(-c3ccccc3)cc2)NC(=O)[C@H](C(C)C)NC(=O)[C@H](Cc2c[nH]c3ccccc23)NC(=O)[C@H](CC(=O)O)NC(=O)[C@H](Cc2ccc(OCC(=O)O)cc2)NC(=O)[C@H](CN)NC(=O)CSC[C@@H](C(=O)NCCOCCOCC(=O)N[C@@H](CCN)C(=O)NCCCCCCCCCCC(=O)O)NC(=O)[C@H](CCCCN)NC(=O)[C@H](C(C)C)NC(=O)[C@H](CC2CCCCC2)NC(=O)[C@H](CCN)NC1=O` [Compound 2657] ({CH2CO}-[Dap]Y(Carboxymethyl)DWV[Bip]E[Orn][dL][Dab][Cha]VKC[AEEA][Dab][Aun]-OH; thioether N-14), which IC50 is on record?
Answer: Its IC50 is 0.0144 µM.

Question: Which IC50 does the source give for `Cc1cccc(C[C@@H]2NC(=O)[C@H](CC(=O)O)NC(=O)[C@H](Cc3ccc(OCC(=O)O)cc3)NC(=O)[C@H](CN)NC(=O)CSC[C@@H](C(=O)NCCOCCOCC(=O)N[C@@H](CCN)C(=O)NCCCCCCCCCCC(=O)O)NC(=O)[C@H](CN)NC(=O)[C@H](C(C)C)NC(=O)[C@H](CC3CCCCC3)NC(=O)[C@H](CCN)NC(=O)[C@@H](CC(C)C)NC(=O)[C@H](CCCN)NC(=O)[C@H](CCC(=O)O)NC(=O)[C@H](Cc3ccc(-c4ccccc4)cc3)NC(=O)[C@H](C(C)C)NC2=O)c1` [Compound 2658] ({CH2CO}-[Dap]Y(Carboxymethyl)D[Phe(3-Me)]V[Bip]E[Orn][dL][Dab][Cha]V[Dap]C[AEEA][Dab][Aun]-OH; thioether N-14) here?
Answer: The IC50 was 0.018 µM.

Question: How did the IC50 turn out when `Cc1cccc(C[C@@H]2NC(=O)[C@H](CC(=O)O)NC(=O)[C@H](Cc3ccc(OCC(=O)O)cc3)NC(=O)[C@H](CN)NC(=O)CSC[C@@H](C(=O)NCCOCCOCC(=O)N[C@@H](CCN)C(=O)NCCCCCCCCCCC(=O)O)NC(=O)[C@H](CCCN)NC(=O)[C@H](C(C)C)NC(=O)[C@H](CC3CCCCC3)NC(=O)[C@H](CCN)NC(=O)[C@@H](CC(C)C)NC(=O)[C@H](CCCN)NC(=O)[C@H](CCC(=O)O)NC(=O)[C@H](Cc3ccc(-c4ccccc4)cc3)NC(=O)[C@H](C(C)C)NC2=O)c1` [Compound 2659] ({CH2CO}-[Dap]Y(Carboxymethyl)D[Phe(3-Me)]V[Bip]E[Orn][dL][Dab][Cha]V[Orn]C[AEEA][Dab][Aun]-OH; thioether N-14) was run?
Answer: The IC50 was 0.0115 µM.

Question: `CC(C)C[C@H]1NC(=O)[C@H](CCCN)NC(=O)[C@H](CCC(=O)O)NC(=O)[C@H](Cc2ccc(-c3ccccc3)cc2)NC(=O)[C@H](C(C)C)NC(=O)[C@H](Cc2c[nH]c3ccccc23)NC(=O)[C@H](CC(=O)O)NC(=O)[C@H](Cc2ccc(OCC(=O)O)cc2)NC(=O)[C@H](CN)NC(=O)CSC[C@@H](C(=O)N[C@@H](CCN)C(=O)NCCOCCOCC(=O)NCCCCCCCCCCC(=O)O)NC(=O)[C@H](CCCCN)NC(=O)[C@H](C(C)C)NC(=O)[C@H](CC2CCCCC2)NC(=O)[C@H](CCN)NC1=O` [Compound 2660] ({CH2CO}-[Dap]Y(Carboxymethyl)DWV[Bip]E[Orn][dL][Dab][Cha]VKC[Dab][AEEA][Aun]-OH; thioether N-14) was tested. Which IC50 did it give?
Answer: The IC50 was 0.0114 µM.

Question: `Cc1cccc(C[C@@H]2NC(=O)[C@H](CC(=O)O)NC(=O)[C@H](Cc3ccc(OCC(=O)O)cc3)NC(=O)[C@H](CN)NC(=O)CSC[C@@H](C(=O)N[C@@H](CCN)C(=O)NCCOCCOCC(=O)NCCCCCCCCCCC(=O)O)NC(=O)[C@H](CN)NC(=O)[C@H](C(C)C)NC(=O)[C@H](CC3CCCCC3)NC(=O)[C@H](CCN)NC(=O)[C@@H](CC(C)C)NC(=O)[C@H](CCCN)NC(=O)[C@H](CCC(=O)O)NC(=O)[C@H](Cc3ccc(-c4ccccc4)cc3)NC(=O)[C@H](C(C)C)NC2=O)c1` [Compound 2661] ({CH2CO}-[Dap]Y(Carboxymethyl)D[Phe(3-Me)]V[Bip]E[Orn][dL][Dab][Cha]V[Dap]C[Dab][AEEA][Aun]-OH; thioether N-14) was tested. Which IC50 did it give?
Answer: Its IC50 is 0.0109 µM.

Question: Which IC50 does the source give for `Cc1cccc(C[C@@H]2NC(=O)[C@H](CC(=O)O)NC(=O)[C@H](Cc3ccc(OCC(=O)O)cc3)NC(=O)[C@H](CN)NC(=O)CSC[C@@H](C(=O)N[C@@H](CCN)C(=O)NCCOCCOCC(=O)NCCCCCCCCCCC(=O)O)NC(=O)[C@H](CCCNC(=N)N)NC(=O)[C@H](C(C)C)NC(=O)[C@H](CC3CCCCC3)NC(=O)[C@H](CCN)NC(=O)[C@@H](CC(C)C)NC(=O)[C@H](CCCN)NC(=O)[C@H](CCC(=O)O)NC(=O)[C@H](Cc3ccc(-c4ccccc4)cc3)NC(=O)[C@H](C(C)C)NC2=O)c1` [Compound 2662] ({CH2CO}-[Dap]Y(Carboxymethyl)D[Phe(3-Me)]V[Bip]E[Orn][dL][Dab][Cha]VRC[Dab][AEEA][Aun]-OH; thioether N-14) here?
Answer: The IC50 was 0.011 µM.

Question: How did the IC50 turn out when `CC(C)C[C@H]1NC(=O)[C@H](CCCN)NC(=O)[C@H](CCC(=O)O)NC(=O)[C@H](Cc2ccc(-c3ccccc3)cc2)NC(=O)[C@H](C(C)C)NC(=O)[C@H](Cc2c[nH]c3ccccc23)NC(=O)[C@H](CC(=O)O)NC(=O)[C@H](Cc2ccc(OCC(=O)O)cc2)NC(=O)[C@H](CN)NC(=O)CSCC(C(=O)NCCOCCOCC(=O)NCCCCCCCCCCC(=O)O)NC(=O)[C@H](CCCCN)NC(=O)[C@H](C(C)C)NC(=O)[C@H](CC2CCCCC2)NC(=O)[C@H](CCN)NC1=O` (stereo partly drawn) [Compound 2665] ({CH2CO}-[Dap]Y(Carboxymethyl)DWV[Bip]E[Orn][dL][Dab][Cha]VK[ξC][AEEA][Aun]-OH; thioether N-14) was run?
Answer: The IC50 was 0.0222 µM.

Question: Which IC50 does the source give for `Cc1cccc(C[C@@H]2NC(=O)[C@H](CC(=O)O)NC(=O)[C@H](Cc3ccc(OCC(=O)O)cc3)NC(=O)[C@H](CN)NC(=O)CSC[C@@H](C(=O)NCCOCCOCC(=O)NCCCCCCCCCCC(=O)O)NC(=O)[C@H](CN)NC(=O)[C@H](C(C)C)NC(=O)[C@H](CC3CCCCC3)NC(=O)[C@H](CCN)NC(=O)[C@@H](CC(C)C)NC(=O)[C@H](CCCN)NC(=O)[C@H](CCC(=O)O)NC(=O)[C@H](Cc3ccc(-c4ccccc4)cc3)NC(=O)[C@H](C(C)C)NC2=O)c1` [Compound 2666] ({CH2CO}-[Dap]Y(Carboxymethyl)D[Phe(3-Me)]V[Bip]E[Orn][dL][Dab][Cha]V[Dap]C[AEEA][Aun]-OH; thioether N-14) here?
Answer: The IC50 was 0.018 µM.

Question: With `Cc1cccc(C[C@@H]2NC(=O)[C@H](CC(=O)O)NC(=O)[C@H](Cc3ccc(OCC(=O)O)cc3)NC(=O)[C@H](CN)NC(=O)CSC[C@@H](C(=O)NCCOCCOCC(=O)NCCCCCCCCCCC(=O)O)NC(=O)[C@H](CCCN)NC(=O)[C@H](C(C)C)NC(=O)[C@H](CC3CCCCC3)NC(=O)[C@H](CCN)NC(=O)[C@@H](CC(C)C)NC(=O)[C@H](CCCN)NC(=O)[C@H](CCC(=O)O)NC(=O)[C@H](Cc3ccc(-c4ccccc4)cc3)NC(=O)[C@H](C(C)C)NC2=O)c1` [Compound 2667] ({CH2CO}-[Dap]Y(Carboxymethyl)D[Phe(3-Me)]V[Bip]E[Orn][dL][Dab][Cha]V[Orn]C[AEEA][Aun]-OH; thioether N-14) as the compound, how does the IC50 read?
Answer: The IC50 was 0.0096 µM.

Question: How did the IC50 turn out when `Cc1cccc(C[C@@H]2NC(=O)[C@H](CC(=O)O)NC(=O)[C@H](Cc3ccc(OCC(=O)O)cc3)NC(=O)[C@H](CN)NC(=O)CSC[C@@H](C(=O)N[C@@H](CCCCN)C(=O)NCCOCCOCC(=O)NCCCCCCCCCCC(=O)O)NC(=O)[C@H](CN)NC(=O)[C@H](C(C)C)NC(=O)[C@H](CC3CCCCC3)NC(=O)[C@H](CCN)NC(=O)[C@@H](CC(C)C)NC(=O)[C@H](CCCN)NC(=O)[C@H](CCC(=O)O)NC(=O)[C@H](Cc3ccc(-c4ccccc4)cc3)NC(=O)[C@H](C(C)C)NC2=O)c1` [Compound 2668] ({CH2CO}-[Dap]Y(Carboxymethyl)D[Phe(3-Me)]V[Bip]E[Orn][dL][Dab][Cha]V[Dap]CK[AEEA][Aun]-OH; thioether N-14) was run?
Answer: The IC50 was 0.0108 µM.

Question: `Cc1cccc(C[C@@H]2NC(=O)[C@H](CC(=O)O)NC(=O)[C@H](Cc3ccc(OCC(=O)O)cc3)NC(=O)[C@H](CN)NC(=O)CSC[C@@H](C(=O)N[C@@H](CCCCN)C(=O)NCCOCCOCC(=O)NCCCCCCCCCCC(=O)O)NC(=O)[C@H](CCCN)NC(=O)[C@H](C(C)C)NC(=O)[C@H](CC3CCCCC3)NC(=O)[C@H](CCN)NC(=O)[C@@H](CC(C)C)NC(=O)[C@H](CCCN)NC(=O)[C@H](CCC(=O)O)NC(=O)[C@H](Cc3ccc(-c4ccccc4)cc3)NC(=O)[C@H](C(C)C)NC2=O)c1` [Compound 2669] ({CH2CO}-[Dap]Y(Carboxymethyl)D[Phe(3-Me)]V[Bip]E[Orn][dL][Dab][Cha]V[Orn]CK[AEEA][Aun]-OH; thioether N-14) was tested. Which IC50 did it give?
Answer: The IC50 was 0.0115 µM.
